# Assay results reported in patent US9434724B2, “Quinuclidines for modulating alpha 7 activity” (priority 2014, dated 2016).
# Where a name gives a salt, the structure may show the parent alone. Read-outs that look alike come from different tables or passages of the source.
# Columns and labels:
# CYP2C19 [1] = target: T1, CYP2C19 (Homo sapiens (Human), UniProt P33261); conditions: microsomes
# [2] = Metabolic stability assay in rat liver microsomes (RLM); format: in vitro ADME; conditions: 1 μM
# Experimental: (§1) Protocol 1: Studies were carried out in human and rat liver microsomes (“HLM” and “RLM,” respectively). Human and rat liver microsomes were purchased from BD Gentest. DMSO stocks were prepared for the test compounds. Aliquots of the DMSO solutions were diluted to 0.5 mM by acetonitrile, then further diluted by liver microsomes/buffer to 1.5 μM. 30 μL of 1.5 μM solutions were mixed with 15 μL of 6 mM NADPH, which had been pre-warmed to 37° C., at a final test compound concentration of 1 μM. The plates were kept in a 37° C. water bath for the duration of the experiment. At each time point (0, 5, 15, 30, 45 minutes), 135 μL of acetonitrile was added into corresponding wells. After the final time point was sampled, the plates were shaken at a vibrator (IKA, MTS 2/4) for 10 min (600 rpm/min) and then centrifuged at 5594 g for 15 min (Thermo Multifuge×3R). Aliquots of the supernatant were removed, diluted 1:1 into distilled water, and analyzed by LC-MS/MS. The peak area response ratio to internal standard (PARR) of the compounds at 5, 15, 30, 45 minutes was compared to the PARR at time 0 to determine the percent of test compound remaining at each time point. Half-lives were calculated using Excel software, fitting to a single-phase exponential decay equation.
# (§2) Protocol 2: Studies were carried out in human and rat liver microsomes. Buffer solutions were prepared as follows: Buffer A: 1.0 L of 0.1 M monobasic Potassium Phosphate buffer containing 1.0 mM EDTA; Buffer B: 1.0 L of 0.1 M Dibasic Potassium Phosphate buffer containing 1.0 mM EDTA; Buffer C: 0.1 M Potassium Phosphate buffer, 1.0 mM EDTA, pH 7.4 by titrating 700 mL of buffer B with buffer A while monitoring with a pH meter.
# (§3) Reference compound (Ketanserin) and test compound spiking solutions were prepared as follows: 500 μM spiking solution: add 10 μL of 10 mM DMSO stock solution into 190 μL ACN; 1.5 μM spiking solution in microsomes (0.75 mg/mL): add 1.5 μL of 500 μM spiking solution and 18.75 μL of 20 mg/mL liver microsomes into 479.75 μL of Buffer C.
# (§4) NADPH stock solution (6 mM) was prepared by dissolving NADPH into buffer C.
# (§5) Assay procedure: 30 μL of 1.5 μM spiking solution containing 0.75 mg/mL microsomes solution was dispensed to the wells designated for […]. The plate was pre-incubated at 37° C. for 10 minutes. 15 μL of NADPH stock solution (6 mM) was added to the wells designated as Time 45, and the timer was started. At 30 mM, 15 mM, and 5 mM, 15 μL NADPH stock solution (6 mM) was added to the wells, respectively. At the end of incubation (0 mM), 135 μL of ACN containing IS was added to all the wells. Then 15 μL of NADPH stock solution (6 mM) was added to the wells designated as Time 0. After quenching, the reaction mixtures were centrifuged at 3220 g for […]. Following centrifugation, 50 μL of the supernatant was transferred from each well into a 96-well sample plate containing 50 μL of ultra-pure water (Millipore) for LC/MS analysis. The peak area response (PARR) ratio to internal standard of the compounds at 5, 15, 30, and 45 minutes was compared to the PARR at time 0 to determine the percent of test compound remaining at each time point. Half-lives were calculated using Excel software, fitting to a single-phase exponential decay equation.
# CYP1A2 = CYP1A2 (Homo sapiens (Human), UniProt P05177); experiment: Cytochrome P450 inhibition in human liver microsomes, CYP1A2
# Sequence of CYP1A2 (P05177 whole entry): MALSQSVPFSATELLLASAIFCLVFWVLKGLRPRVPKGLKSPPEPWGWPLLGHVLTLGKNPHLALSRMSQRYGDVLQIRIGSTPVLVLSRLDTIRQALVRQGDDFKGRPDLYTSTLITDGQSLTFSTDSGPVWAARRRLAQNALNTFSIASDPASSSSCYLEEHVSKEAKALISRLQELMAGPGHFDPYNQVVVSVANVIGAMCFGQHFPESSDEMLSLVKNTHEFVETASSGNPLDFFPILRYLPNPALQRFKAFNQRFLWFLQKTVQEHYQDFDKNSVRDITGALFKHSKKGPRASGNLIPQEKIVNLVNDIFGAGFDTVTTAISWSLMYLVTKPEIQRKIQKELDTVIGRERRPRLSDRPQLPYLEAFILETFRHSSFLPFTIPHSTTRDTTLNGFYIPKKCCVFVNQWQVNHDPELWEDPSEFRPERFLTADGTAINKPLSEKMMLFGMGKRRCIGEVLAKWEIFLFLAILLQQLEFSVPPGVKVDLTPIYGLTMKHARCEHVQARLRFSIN
# [3] = target: T2, rat brain nicotinic receptor (α7 NAChR) (Rattus norvegicus (Rat), UniProt Q05941); format: binding
# T2 sequence (Q05941 23-502 limits assumed): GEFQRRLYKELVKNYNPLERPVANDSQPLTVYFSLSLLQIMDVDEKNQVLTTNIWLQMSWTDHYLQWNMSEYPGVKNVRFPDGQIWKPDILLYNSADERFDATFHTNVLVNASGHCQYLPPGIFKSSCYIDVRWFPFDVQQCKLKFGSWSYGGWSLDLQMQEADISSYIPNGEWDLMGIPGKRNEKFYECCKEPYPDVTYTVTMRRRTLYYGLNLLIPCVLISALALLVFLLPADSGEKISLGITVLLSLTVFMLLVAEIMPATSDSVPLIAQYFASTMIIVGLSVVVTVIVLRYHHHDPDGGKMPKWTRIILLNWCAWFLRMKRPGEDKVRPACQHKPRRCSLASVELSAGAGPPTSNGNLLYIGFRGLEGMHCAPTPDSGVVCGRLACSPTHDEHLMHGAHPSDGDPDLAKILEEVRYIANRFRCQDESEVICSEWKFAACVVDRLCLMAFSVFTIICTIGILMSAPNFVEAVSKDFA
# [4] = Metabolic stability assay in human liver microsomes (HLM); format: in vitro ADME; conditions: 1 μM
# Experimental: as §1, §2, §3, §4, §5
# CYP2C19 [5] = target: T1, CYP2C19; experiment: Cytochrome P450 inhibition in human liver microsomes, CYP2C19; conditions: read-out: 2C19 IC50, Protocol 1
# CYP3A4 = CYP3A4 (Homo sapiens (Human), UniProt P08684); experiment: Cytochrome P450 inhibition in human liver microsomes, CYP3A4
# Sequence of CYP3A4 (P08684 whole entry): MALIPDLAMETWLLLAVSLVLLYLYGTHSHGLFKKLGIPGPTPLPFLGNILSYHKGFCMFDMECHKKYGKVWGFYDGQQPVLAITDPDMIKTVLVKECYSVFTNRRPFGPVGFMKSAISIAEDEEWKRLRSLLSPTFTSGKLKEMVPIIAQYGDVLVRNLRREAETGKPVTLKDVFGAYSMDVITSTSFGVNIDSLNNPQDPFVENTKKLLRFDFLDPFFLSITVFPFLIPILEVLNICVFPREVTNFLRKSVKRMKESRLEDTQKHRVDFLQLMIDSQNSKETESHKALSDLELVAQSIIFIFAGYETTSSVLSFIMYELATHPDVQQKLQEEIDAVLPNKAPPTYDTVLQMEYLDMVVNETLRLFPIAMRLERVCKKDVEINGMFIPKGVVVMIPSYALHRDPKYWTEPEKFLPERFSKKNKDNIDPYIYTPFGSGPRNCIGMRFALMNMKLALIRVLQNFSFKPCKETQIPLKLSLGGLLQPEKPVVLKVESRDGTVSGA
# CYP2C9 = CYP2C9 (Homo sapiens (Human), UniProt P11712); experiment: Cytochrome P450 inhibition in human liver microsomes, CYP2C9; conditions: read-out: 2C9 IC50, Protocol 1
# Sequence of CYP2C9 (P11712 whole entry): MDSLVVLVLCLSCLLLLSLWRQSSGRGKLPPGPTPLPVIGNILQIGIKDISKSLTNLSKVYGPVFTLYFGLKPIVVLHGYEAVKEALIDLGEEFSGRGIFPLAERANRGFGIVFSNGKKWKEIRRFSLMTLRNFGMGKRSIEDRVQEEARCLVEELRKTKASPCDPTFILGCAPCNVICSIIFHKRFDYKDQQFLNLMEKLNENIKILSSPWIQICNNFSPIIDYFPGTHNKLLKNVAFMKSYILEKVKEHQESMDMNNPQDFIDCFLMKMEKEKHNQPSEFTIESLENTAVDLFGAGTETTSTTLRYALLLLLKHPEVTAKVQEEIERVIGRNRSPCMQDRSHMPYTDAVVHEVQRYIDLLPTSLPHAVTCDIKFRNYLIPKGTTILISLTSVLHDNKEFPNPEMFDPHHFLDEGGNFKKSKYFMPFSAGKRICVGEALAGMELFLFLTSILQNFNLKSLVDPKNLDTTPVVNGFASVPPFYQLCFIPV
# Human plasma stability = format: in vitro ADME; conditions: plasma; for % Remaining @ 2 h: 5 μM
# Experimental: Protocol 1: Studies were carried out in human plasma. All plasma was obtained from Bioreclamation and collected on sodium heparin. Plasma was adjusted to pH 7.4. A DMSO stock was first prepared for the test compound. An aliquot of the DMSO solution was dosed into 1 mL of plasma, which had been pre-warmed to 37° C., at a final test compound concentration of 1 μM. The vials were kept in a benchtop Thermomixer® for the duration of the experiment. Aliquots (100 μL) were taken at each time point (0, 15, 30, 60, and 120 minutes) and added to 96-well plates which had been pre-filled with 300 μL of acetonitrile. Samples were stored at 4° C. until the end of the experiment. After the final time point was sampled, the plate was mixed and then centrifuged at 3,000 rpm for 10 minutes. Aliquots of the supernatant were removed, diluted 1:1 into distilled water, and analyzed by LC-MS/MS. The peak area response ratio to internal standard (PARR) of the compound at 15, 30, 60 and 120 minutes was compared to the PARR at time 0 to determine the percent of test compound remaining at each time point. Half-lives were calculated using GraphPad software, fitting to a single-phase exponential decay equation.
# Protocol 2: Studies were carried out in plasma. Plasma was prepared under approval of IRB and IACUC on sodium heparin. The pH of plasma was monitored and used within the range of pH 7.4 to pH 8.0. DMSO stocks were prepared for the test compounds. Aliquots of the DMSO solutions were diluted to 0.05 mM by 0.05 mM Sodium phosphate buffer with 0.5% BSA. Then 10 μL of 0.05 mM solutions were dosed into 90 μL of plasma in duplicates (n=2), which had been pre-warmed to 37° C., at a final test compound concentration of 5 μM. The plates were kept in a 37° C. water bath for the duration of the experiment. At each time point (0, 5, 15, 30, 45, 60, and 120 minutes), 400 μL of acetonitrile was added into corresponding wells. After the final time point was sampled, the plates were shaken at the vibrator (IKA, MTS 2/4) for 10 min (600 rpm/min) and then centrifuged at 5594 g for 15 min (Thermo Multifuge×3R). Aliquots of the supernatant were removed, diluted 1:1 into distilled water, and analyzed by LC-MS/MS. The peak area response ratio to internal standard (PARR) of the compounds at 5, 15, 30, 45, 60, and 120 minutes was compared to the PARR at time 0 to determine the percent of test compound remaining at each time point. Half-lives were calculated using Excel software, fitting to a single-phase exponential decay equation.
# [6] = target: T2, rat brain nicotinic receptor (α7 NAChR); format: binding; conditions: Protocol No. 2; [3H] α-Bungarotoxin 0.4 nM, rat brain P2 membrane
# [7] = read-out: 3A4 IC50 (Midazolam), substrate midazolam, Protocol 1
# [8] = read-out: 3A4 IC50 (Testosterone), substrate testosterone, Protocol 1
# [9] = Protocol No. 1, rat liver microsomes
# [10] = Protocol No. 1, human liver microsomes
# T1 sequence (P33261 whole entry): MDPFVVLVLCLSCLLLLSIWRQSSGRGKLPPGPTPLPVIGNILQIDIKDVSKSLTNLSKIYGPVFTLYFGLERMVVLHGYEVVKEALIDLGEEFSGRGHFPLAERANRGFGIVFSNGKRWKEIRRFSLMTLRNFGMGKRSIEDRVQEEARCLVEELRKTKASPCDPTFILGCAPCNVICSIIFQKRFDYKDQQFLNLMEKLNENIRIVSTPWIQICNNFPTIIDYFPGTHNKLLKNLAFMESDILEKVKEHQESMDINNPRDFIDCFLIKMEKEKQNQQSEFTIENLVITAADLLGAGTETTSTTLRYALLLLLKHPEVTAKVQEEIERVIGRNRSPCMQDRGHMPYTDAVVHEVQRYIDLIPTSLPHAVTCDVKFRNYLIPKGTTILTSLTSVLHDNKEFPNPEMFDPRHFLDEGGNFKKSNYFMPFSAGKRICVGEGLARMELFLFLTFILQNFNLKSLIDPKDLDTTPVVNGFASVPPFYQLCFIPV
SMILES,IC50 [3] [µM],Ki [3] [µM],"RLM ([2]; rat, microsomes) [mL/min/kg]","HLM ([4]; human, microsomes) [mL/min/kg]","% Remaining @ 2 h (Human plasma stability; human, 2 h) [%]",IC50 [6] [µM],Ki [6] [µM],further results
"O=C(OCC12CCN(CC1)CC2)c1c[nH]c2ccc(Cl)cc12 [Compound 2, quinuclidin-4-ylmethyl 5-chloro-1H-indole-3-carboxylate]",0.328,0.287,,,,,,"IC50 (CYP2C19 [1]): > 10 µM; RLM ([2]; rat, microsomes, pH 7.4): 127.44 mL/min/kg; IC50 (CYP1A2; read-out: 1A2 IC50, Protocol 2): > 10 µM; HLM ([4]; human, microsomes, pH 7.4): <13.608 mL/min/kg"
"O=C(OCC12CCN(CC1)CC2)c1c[nH]c2c(Cl)cccc12 [Compound 25, quinuclidin-4-ylmethyl 7-chloro-1H-indole-3-carboxylate]",1.65,1.45,,,,,,"IC50 (CYP2C19 [1]): > 10 µM; RLM ([2]; rat, microsomes, pH 7.4): 219.053 mL/min/kg; IC50 (CYP1A2; read-out: 1A2 IC50, Protocol 2): > 10 µM; HLM ([4]; human, microsomes, pH 7.4): <13.608 mL/min/kg"
"Cc1c(F)ccc2[nH]cc(C(=O)OCC34CCN(CC3)CC4)c12 [Compound 43, quinuclidin-4-ylmethyl 5-fluoro-4-methyl-1H-indole-3-carboxylate]",0.207,0.177,469.04,5.57,112.99,,,"IC50 (CYP2C19 [5]): > 10 µM; IC50 (CYP1A2; read-out: 1A2 IC50, Protocol 1): > 10 µM; IC50 (CYP3A4; [7]): > 10 µM; IC50 (CYP3A4; [8]): > 10 µM; IC50 (CYP2C9): > 10 µM; T1/2 (Human plasma stability; human): ∞"
"Cc1cc(F)cc2[nH]cc(C(=O)OCC34CCN(CC3)CC4)c12 [Compound 44, quinuclidin-4-ylmethyl 6-fluoro-4-methyl-1H-indole-3-carboxylate]",0.48,0.412,531.35,3.5,95.72,,,"IC50 (CYP2C19 [5]): > 10 µM; IC50 (CYP1A2; read-out: 1A2 IC50, Protocol 1): > 10 µM; IC50 (CYP3A4; [7]): > 10 µM; IC50 (CYP3A4; [8]): > 10 µM; IC50 (CYP2C9): > 10 µM; T1/2 (Human plasma stability; human): ∞"
"Cc1cc2c(C(=O)OCC34CCN(CC3)CC4)c[nH]c2cc1C#N [Compound 84, quinuclidin-4-ylmethyl 6-cyano-5-methyl-1H-indole-3-carboxylate]",,,,,,3.34,7.18,"RLM [2, 9]: 116.21 mL/min/kg; HLM [4, 10]: 10.24 mL/min/kg; % Remaining @ 2 h (Human plasma stability; Protocol No. 2, 37° C.): 59.79%"
"COc1cc(C)cc2[nH]cc(C(=O)OCC34CCN(CC3)CC4)c12 [Compound 85, quinuclidin-4-ylmethyl 4-methoxy-6-methyl-1H-indole-3-carboxylate]",,,59.67,8.18,27.28,0.18,0.357,
"COc1cc2[nH]cc(C(=O)OCC34CCN(CC3)CC4)c2cc1OC [Compound 87, quinuclidin-4-ylmethyl 5,6-dimethoxy-1H-indole-3-carboxylate]",,,,,,1.56,2.71,"RLM [2, 9]: 257.71 mL/min/kg; HLM [4, 10]: 0.5 mL/min/kg; % Remaining @ 2 h (Human plasma stability; Protocol No. 2, 37° C.): 55.42%"
"Cc1cc(OC(=O)C(C)(C)C)cc2[nH]cc(C(=O)OCC34CCN(CC3)CC4)c12 [Compound 89, quinuclidin-4-ylmethyl 4-methyl-6-(pivaloyloxy)-1H-indole-3-carboxylate]",,,1154.15,347.66,77.23,1.07,2.13,
"Cl.O=C(OCC12CCN(CC1)CC2)c1c[nH]c2cc(C(F)(F)F)ccc12 [Compound 90, quinuclidin-4-ylmethyl 6-(trifluoromethyl)-1H-indole-3-carboxylate]",,,,,,> 3,> 3,"RLM [2, 9]: 72.22 mL/min/kg; HLM [4, 10]: 5.21 mL/min/kg; % Remaining @ 2 h (Human plasma stability; Protocol No. 2, 37° C.): 63.18%"
"CC(=O)Nc1cc(C)c2c(C(=O)OCC34CCN(CC3)CC4)c[nH]c2c1 [Compound 93, quinuclidin-4-ylmethyl 6-acetamido-4-methyl-1H-indole-3-carboxylate]",,,12.66,12.96,81.38,1.31,2.87,
"Cc1c(OCC(F)(F)F)ccc2[nH]cc(C(=O)OCC34CCN(CC3)CC4)c12 [Compound 94, quinuclidin-4-ylmethyl 4-methyl-5-(2,2,2-trifluoroethoxy)-1H-indole-3-carboxylate]",,,26.52,2.62,76.38,0.162,0.23,
"Cc1c(OCCO)ccc2[nH]cc(C(=O)OCC34CCN(CC3)CC4)c12 [Compound 95, quinuclidin-4-ylmethyl 5-(2-hydroxyethoxy)-4-methyl-1H-indole-3-carboxylate, 2,2,2-trifluoroacetate salt]",,,17.75,2.86,73.17,0.213,0.414,
